# Measured values taken from ChEMBL document CHEMBL1201862, “PubChem BioAssay data set” (2004).
# Calls of active or inactive are those of the source.
# Legend:
# [1] = target: T1, Aryl hydrocarbon receptor (Homo sapiens, UniProt P35869); settings: Potency;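 note: confirmatory quantitative high-throughput screen measuring activation of the AhR signaling pathway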
# T1 sequence (P35869 whole entry): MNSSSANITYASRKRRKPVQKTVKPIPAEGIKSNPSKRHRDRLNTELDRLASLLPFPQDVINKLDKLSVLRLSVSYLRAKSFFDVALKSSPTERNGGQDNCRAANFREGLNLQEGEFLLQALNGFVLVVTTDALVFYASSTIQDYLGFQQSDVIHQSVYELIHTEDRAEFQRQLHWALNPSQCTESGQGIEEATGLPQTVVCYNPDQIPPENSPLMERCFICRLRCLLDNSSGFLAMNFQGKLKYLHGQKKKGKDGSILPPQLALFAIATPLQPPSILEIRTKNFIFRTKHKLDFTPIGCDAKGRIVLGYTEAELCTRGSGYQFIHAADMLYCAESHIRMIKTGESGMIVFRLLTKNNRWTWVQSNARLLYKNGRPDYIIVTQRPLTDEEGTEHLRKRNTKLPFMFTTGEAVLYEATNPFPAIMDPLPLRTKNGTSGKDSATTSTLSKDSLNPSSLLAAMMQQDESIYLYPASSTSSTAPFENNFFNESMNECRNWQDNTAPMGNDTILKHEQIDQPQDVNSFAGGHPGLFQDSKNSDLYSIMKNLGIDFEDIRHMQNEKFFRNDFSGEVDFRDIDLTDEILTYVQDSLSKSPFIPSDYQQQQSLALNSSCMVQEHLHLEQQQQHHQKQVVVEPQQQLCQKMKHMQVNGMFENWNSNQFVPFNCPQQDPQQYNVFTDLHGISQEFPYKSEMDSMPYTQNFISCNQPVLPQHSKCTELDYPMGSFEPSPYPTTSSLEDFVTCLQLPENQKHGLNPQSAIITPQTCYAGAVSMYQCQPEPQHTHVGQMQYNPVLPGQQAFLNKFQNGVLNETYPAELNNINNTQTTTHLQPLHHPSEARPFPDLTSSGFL
# [2] = target: Melanin-concentrating hormone receptor 1 (Homo sapiens, UniProt Q99705); experiment: Late-stage fluorescence-based counterscreen for antagonists of the G-protein coupled receptor 7 (GPR7): cell-based dose response assay to identify antagonists of the melanin-concentrating hormone receptor 1 (MCHR1) Set 5.; type: functional
# Sequence of Melanin-concentrating hormone receptor 1 (Q99705 whole entry): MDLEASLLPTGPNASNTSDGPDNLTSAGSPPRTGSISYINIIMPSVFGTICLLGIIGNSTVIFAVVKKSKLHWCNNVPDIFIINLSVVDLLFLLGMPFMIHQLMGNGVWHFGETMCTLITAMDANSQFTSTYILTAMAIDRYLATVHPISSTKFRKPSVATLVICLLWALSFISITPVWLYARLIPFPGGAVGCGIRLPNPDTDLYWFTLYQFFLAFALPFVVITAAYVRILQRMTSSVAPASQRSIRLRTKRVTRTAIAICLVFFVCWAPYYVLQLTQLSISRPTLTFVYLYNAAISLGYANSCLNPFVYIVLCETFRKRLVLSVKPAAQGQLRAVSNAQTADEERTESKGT
# Melanocortin receptor 4 = Melanocortin receptor 4 (Homo sapiens, UniProt P32245); experiment: MC4R antagonist potency on cAMP, dose response, cell-based, TR-FRET, biased antagonists (AID 602298); type: functional;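 note: antagonist potency against agonist-stimulated cAMP production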
# Sequence of Melanocortin receptor 4 (P32245 whole entry): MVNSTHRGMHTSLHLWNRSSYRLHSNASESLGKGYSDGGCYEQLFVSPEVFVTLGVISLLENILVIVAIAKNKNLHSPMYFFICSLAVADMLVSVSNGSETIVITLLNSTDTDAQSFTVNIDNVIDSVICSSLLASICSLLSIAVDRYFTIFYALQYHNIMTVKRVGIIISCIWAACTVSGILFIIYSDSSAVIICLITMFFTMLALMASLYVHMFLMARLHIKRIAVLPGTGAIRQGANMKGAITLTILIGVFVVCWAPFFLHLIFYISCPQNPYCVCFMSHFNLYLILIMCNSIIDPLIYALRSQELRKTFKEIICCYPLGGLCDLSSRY
# [3] = target: T2, Heat shock factor protein 1 (Mus musculus, UniProt P38532); experiment: HSF1 potentiators in luciferase reporter cells, confirmation, cell-based, NIH3T3, luminescence, dose retest (AID 435004); type: functional;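 note: stress induced by proteasome inhibitor MG132 added 30 min after compound; luciferase reporter driven by HSF1 response element in NIH3T3 cells; actives raise luminescence as potentiators of the MG132 stress response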
# T2 sequence (P38532 whole entry): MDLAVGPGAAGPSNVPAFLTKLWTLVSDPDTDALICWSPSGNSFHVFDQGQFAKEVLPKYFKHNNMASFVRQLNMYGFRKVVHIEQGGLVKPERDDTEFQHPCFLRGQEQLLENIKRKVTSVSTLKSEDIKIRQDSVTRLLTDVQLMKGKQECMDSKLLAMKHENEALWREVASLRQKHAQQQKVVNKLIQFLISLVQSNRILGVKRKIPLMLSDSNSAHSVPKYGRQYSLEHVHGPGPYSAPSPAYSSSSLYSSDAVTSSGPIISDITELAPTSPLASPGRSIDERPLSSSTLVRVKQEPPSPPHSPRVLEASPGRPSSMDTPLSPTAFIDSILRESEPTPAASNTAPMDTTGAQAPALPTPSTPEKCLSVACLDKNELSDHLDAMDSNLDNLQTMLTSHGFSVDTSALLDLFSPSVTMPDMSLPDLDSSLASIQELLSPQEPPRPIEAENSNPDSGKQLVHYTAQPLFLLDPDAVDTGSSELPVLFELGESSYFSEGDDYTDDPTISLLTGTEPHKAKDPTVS
# [4] = nonselective inhibitors of cellular cAMP signaling, dose response, counter-screen for MC4R biased antagonist project, cell-based, TR-FRET cAMP detection (AID 602305); type: functional;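 note: U2OS cells stimulated with forskolin near its EC80 as the cAMP inducer; potency is for inhibition of forskolin-stimulated cAMP signaling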
# Beta-galactosidase = Beta-galactosidase (Escherichia coli, UniProt Q8VNN2); experiment: Dose response counterscreen for EBI2 assay utilizing the enzyme, b-galactosidase.; type: functional
# Sequence of Beta-galactosidase (Q8VNN2 whole entry): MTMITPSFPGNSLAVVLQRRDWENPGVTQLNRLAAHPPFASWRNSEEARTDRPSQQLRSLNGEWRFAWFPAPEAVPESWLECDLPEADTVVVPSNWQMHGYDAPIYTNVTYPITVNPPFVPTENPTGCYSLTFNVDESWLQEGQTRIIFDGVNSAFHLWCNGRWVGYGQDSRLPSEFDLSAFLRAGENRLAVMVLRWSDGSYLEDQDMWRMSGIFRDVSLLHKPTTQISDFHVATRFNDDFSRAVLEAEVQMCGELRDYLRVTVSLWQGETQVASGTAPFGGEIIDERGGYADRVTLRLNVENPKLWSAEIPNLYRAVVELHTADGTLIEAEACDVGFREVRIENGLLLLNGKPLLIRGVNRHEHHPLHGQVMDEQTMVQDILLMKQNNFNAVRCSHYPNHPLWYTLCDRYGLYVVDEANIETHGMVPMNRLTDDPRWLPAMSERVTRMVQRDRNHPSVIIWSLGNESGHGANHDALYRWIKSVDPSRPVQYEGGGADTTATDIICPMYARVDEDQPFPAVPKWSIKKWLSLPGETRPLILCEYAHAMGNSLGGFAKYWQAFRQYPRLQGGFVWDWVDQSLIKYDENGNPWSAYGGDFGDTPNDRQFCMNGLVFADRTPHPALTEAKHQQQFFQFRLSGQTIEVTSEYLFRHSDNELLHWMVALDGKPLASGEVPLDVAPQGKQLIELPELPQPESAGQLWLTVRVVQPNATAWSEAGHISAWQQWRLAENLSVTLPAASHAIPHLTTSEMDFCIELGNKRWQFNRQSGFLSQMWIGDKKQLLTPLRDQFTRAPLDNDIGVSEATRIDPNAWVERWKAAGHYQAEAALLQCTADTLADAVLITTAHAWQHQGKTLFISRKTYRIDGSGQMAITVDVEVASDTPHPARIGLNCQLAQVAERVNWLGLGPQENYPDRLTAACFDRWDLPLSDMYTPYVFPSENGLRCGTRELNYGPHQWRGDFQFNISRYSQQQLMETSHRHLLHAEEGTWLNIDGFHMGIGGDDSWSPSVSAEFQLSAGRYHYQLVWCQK
# [5] = target: Testis-specific serine/threonine-protein kinase 2 (Homo sapiens, UniProt Q96PF2); type: functional;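 note: part of the Navigating the Kinome panel, target entry STK22B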
# Sequence of Testis-specific serine/threonine-protein kinase 2 (Q96PF2 whole entry): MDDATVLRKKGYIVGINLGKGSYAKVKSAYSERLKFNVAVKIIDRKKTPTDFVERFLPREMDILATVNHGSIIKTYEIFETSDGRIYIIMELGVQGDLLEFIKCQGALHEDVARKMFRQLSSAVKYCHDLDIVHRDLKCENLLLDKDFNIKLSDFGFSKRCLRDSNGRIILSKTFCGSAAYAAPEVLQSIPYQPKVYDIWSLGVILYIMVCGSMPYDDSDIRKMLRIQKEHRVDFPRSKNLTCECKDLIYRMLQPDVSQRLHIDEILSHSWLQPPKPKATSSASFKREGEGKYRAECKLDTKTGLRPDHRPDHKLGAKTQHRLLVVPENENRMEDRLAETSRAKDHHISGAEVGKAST
# [6] = target: Mitogen-activated protein kinase 12 (Homo sapiens, UniProt P53778); type: functional;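 note: measured as one member of a kinome-wide kinase profiling panel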
# Sequence of Mitogen-activated protein kinase 12 (P53778 whole entry): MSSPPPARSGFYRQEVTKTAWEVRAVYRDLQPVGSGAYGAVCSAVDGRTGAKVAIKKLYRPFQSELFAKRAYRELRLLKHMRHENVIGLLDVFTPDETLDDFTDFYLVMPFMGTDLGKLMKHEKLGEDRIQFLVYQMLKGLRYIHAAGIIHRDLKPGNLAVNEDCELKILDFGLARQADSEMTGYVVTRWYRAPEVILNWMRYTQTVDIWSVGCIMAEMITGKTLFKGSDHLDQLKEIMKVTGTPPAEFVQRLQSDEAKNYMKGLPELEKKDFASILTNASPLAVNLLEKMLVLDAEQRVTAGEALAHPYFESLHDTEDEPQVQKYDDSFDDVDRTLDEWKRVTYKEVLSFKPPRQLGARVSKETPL
# [7] = target: Cell division cycle 7-related protein kinase (Homo sapiens, UniProt O00311); type: functional;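 note: value obtained from a kinome-wide kinase panel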
# Sequence of Cell division cycle 7-related protein kinase (O00311 whole entry): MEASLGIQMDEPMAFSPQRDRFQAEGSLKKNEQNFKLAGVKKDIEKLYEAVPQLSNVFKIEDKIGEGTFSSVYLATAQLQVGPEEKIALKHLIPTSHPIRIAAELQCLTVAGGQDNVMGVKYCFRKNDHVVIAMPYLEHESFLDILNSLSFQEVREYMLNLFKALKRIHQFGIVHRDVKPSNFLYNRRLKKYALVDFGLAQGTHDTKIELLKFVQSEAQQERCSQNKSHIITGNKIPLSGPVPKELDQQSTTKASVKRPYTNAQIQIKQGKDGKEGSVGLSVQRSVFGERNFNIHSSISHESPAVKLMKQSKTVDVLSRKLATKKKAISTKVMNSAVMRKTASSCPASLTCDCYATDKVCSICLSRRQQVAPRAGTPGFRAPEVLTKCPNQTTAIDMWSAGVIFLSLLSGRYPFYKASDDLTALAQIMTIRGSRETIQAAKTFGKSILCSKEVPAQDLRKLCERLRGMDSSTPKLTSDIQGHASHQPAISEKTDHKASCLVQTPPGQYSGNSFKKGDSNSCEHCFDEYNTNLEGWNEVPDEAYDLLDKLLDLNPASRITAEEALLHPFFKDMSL
# [8] = target: Tyrosine-protein phosphatase non-receptor type 11 (Homo sapiens, UniProt Q06124); experiment: SHP2 phosphatase inhibition, dose response, selectivity assay for STEP inhibitor project, biochemical (AID 602367); type: functional; settings: read-out: IC50_Mean
# Sequence of Tyrosine-protein phosphatase non-receptor type 11 (Q06124 whole entry): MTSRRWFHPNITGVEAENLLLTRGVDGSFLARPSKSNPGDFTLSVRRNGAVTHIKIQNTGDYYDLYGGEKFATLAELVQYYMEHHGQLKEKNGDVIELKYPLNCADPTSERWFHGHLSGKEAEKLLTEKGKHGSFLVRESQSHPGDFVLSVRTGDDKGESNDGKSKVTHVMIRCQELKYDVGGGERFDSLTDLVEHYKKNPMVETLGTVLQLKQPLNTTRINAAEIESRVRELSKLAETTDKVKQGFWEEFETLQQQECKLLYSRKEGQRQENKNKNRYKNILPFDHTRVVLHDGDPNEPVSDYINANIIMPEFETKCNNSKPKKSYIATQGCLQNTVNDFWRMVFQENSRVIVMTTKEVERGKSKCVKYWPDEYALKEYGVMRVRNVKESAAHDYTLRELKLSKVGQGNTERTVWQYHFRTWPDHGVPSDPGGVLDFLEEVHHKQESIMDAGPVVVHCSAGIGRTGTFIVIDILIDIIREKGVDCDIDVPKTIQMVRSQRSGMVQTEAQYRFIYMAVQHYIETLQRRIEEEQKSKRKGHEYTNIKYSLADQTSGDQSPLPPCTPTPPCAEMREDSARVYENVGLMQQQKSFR
# [9] = target: Dual specificity protein phosphatase 3 (Homo sapiens, UniProt P51452); experiment: VHR phosphatase inhibition, dose response, selectivity assay for STEP inhibitor project, biochemical (AID 602374); type: functional; settings: read-out: IC50_Mean
# Sequence of Dual specificity protein phosphatase 3 (P51452 whole entry): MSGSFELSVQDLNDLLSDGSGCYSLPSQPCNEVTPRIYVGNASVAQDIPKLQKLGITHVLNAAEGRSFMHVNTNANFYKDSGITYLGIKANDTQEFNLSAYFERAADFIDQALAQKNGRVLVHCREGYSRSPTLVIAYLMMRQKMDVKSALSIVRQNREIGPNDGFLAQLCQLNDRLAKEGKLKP
# [10] = target: Tyrosine-protein phosphatase non-receptor type 5 (Homo sapiens, UniProt P54829); experiment: STEP phosphatase inhibitors, confirmation, biochemical, fluorescence intensity, uHTS hits (AID 602372); type: functional; settings: read-out: IC50_Mean
# Sequence of Tyrosine-protein phosphatase non-receptor type 5 (P54829 whole entry): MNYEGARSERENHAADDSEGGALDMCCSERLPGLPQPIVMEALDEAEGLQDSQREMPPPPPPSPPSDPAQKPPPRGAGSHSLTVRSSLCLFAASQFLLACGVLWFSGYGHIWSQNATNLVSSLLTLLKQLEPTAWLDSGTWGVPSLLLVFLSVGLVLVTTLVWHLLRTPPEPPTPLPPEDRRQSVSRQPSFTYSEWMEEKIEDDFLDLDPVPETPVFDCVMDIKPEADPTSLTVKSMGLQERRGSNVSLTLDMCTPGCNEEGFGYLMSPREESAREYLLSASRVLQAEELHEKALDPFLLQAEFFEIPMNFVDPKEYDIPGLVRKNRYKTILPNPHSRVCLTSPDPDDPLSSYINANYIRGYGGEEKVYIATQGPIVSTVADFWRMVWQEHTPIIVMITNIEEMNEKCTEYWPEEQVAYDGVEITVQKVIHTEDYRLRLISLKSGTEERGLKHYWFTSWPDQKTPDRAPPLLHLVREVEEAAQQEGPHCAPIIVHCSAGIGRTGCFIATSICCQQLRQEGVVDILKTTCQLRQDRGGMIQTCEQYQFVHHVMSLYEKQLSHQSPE
# [11] = target: Potassium voltage-gated channel subfamily KQT member 2 (Rattus norvegicus, UniProt O88943); experiment: KCNQ2 potassium channel inhibitors, dose response, cell-based, automated electrophysiology, set II, rat KCNQ2 (AID 588637); type: functional
# INS1 = experiment: beta cell apoptosis inhibitors, cytokine rescue, dose response, luminescence, retest (AID 449756); type: functional, cell-based; settings: Rattus norvegicus;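 note: cell death triggered by IL-1 beta plus TNF-alpha plus IFN-gamma mixture; protective hits raise ATP signal compared with cytokine alone wells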
# [12] = target: DNA (cytosine-5)-methyltransferase 1 (Homo sapiens, UniProt P26358); experiment: DNMT1 methyltransferase inhibitors, confirmation, biochemical, fluorescent molecular beacon (AID 602386); type: functional
# cells [13] = type: functional, cell-based
# [14] = target: SWI/SNF-related matrix-associated actin-dependent regulator of chromatin subfamily A member 2 (Homo sapiens, UniProt P51531); experiment: Luminescence-based cell-based high throughput dose response assay to identify activators of the function of SWI/SNF related, matrix associated, actin dependent regulator of chromatin, subfamily a, member 2 (SMARCA2, BRM).; type: functional
# [15] = Counterscreen for activators of the function of SWI/SNF related, matrix associated, actin dependent regulator of chromatin, subfamily a, member 2 (SMARCA2, BRM): Luminescence-based cell-based high throughput dose response assay to identify non-selective compounds using the VP16 reporter assay.; type: functional
# cells [16] = type: functional, cell-based; remark: listed apart in the source
# [17] = target: Mitochondrial peptide methionine sulfoxide reductase (Bos taurus, UniProt P54149); type: functional;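 note: absorbance read-out, biochemical high-throughput dose-response screen for MsrA inhibitors, confirmatory; recombinant bovine MsrA coupled to E. coli TrxB with NADPH and selenocystamine; potency is for inhibitors of MsrA activity on DMSO substrate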
# Sequence of Mitochondrial peptide methionine sulfoxide reductase (P54149 whole entry): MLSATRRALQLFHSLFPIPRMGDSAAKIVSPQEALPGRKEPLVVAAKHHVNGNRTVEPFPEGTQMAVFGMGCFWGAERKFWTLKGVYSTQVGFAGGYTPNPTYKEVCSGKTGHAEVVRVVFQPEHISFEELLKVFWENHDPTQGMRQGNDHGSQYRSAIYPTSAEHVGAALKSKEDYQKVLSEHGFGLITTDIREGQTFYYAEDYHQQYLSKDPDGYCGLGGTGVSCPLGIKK
# HEK293 [18] = experiment: optical interference in Abeta FP readout, dose response, artefact control for IDE activator project, biochemical, fluorescence polarization (AID 588442); type: functional, cell-based; settings: Homo sapiens
# HEK293 [19] = experiment: HEK cell cytotoxicity by LDH release, dose response, cytotoxicity control for IDE activator project, fluorescence, HEK cells (AID 588440); type: functional, cell-based; settings: Homo sapiens;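 note: cytotoxicity by LDH release measuring loss of membrane integrity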
# Insulin-degrading enzyme [20] = target: T3, Insulin-degrading enzyme (Homo sapiens, UniProt P14735); experiment: activators of recombinant IDE enzyme, dose response, counter-screen for IDE activator project, biochemical, fluorescence polarization (AID 588681)
# T3 sequence (P14735 whole entry): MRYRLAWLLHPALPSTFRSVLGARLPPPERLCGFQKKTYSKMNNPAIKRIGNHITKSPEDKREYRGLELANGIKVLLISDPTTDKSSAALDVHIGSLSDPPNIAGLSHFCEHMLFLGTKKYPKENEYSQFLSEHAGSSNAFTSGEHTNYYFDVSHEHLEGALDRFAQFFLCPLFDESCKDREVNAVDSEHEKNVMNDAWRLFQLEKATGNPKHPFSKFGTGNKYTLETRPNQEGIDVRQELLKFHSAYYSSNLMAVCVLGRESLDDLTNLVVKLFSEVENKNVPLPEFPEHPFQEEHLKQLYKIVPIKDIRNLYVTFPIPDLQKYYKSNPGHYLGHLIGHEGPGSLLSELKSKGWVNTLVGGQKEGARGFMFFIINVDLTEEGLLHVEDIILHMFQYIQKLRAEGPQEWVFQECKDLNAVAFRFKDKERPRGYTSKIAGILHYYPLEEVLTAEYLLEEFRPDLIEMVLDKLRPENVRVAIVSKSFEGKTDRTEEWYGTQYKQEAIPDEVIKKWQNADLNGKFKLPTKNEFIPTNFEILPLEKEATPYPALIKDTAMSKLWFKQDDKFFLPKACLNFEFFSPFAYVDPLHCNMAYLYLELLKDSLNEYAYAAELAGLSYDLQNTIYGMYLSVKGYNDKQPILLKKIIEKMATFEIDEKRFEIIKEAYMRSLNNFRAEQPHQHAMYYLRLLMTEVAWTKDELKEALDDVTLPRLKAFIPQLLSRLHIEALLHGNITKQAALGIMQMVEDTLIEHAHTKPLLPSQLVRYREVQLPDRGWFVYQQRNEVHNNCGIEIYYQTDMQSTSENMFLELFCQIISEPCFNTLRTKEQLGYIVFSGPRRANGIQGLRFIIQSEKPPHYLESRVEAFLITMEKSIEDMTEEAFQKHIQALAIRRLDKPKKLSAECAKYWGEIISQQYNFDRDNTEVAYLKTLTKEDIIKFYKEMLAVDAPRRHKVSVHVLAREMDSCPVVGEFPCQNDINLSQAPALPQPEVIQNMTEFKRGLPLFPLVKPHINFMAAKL
# Insulin-degrading enzyme [21] = target: T3, Insulin-degrading enzyme; experiment: activators of endogenous IDE in HEK cells, dose response, cell-based, fluorescence polarization (AID 588439); type: functional
# Interleukin-8 [22] = target: T4, Interleukin-8 (Homo sapiens, UniProt P10145); experiment: Dose Response confirmation of uHTS small molecule hits for cystic fibrosis induced NFkb Inhibitors in a TNFa-induced IL8 counterscreen.; type: functional; settings: read-out: IC50_Mean
# T4 sequence (P10145 whole entry): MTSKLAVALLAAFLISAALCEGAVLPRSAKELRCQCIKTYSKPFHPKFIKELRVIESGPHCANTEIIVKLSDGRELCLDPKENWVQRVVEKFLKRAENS
# Interleukin-8 [23] = target: T4, Interleukin-8; experiment: Dose Response confirmation of uHTS small molecule hits for cystic fibrosis induced NFkb Inhibitors in a PAF-induced IL8 counterscreen.; type: functional; settings: read-out: IC50_Mean
# [24] = target: T5, Rac GTPase-activating protein 1 (Homo sapiens, UniProt Q9H0H5); experiment: MgcRacGAP GTPase-activating activity inhibitors, confirmation, biochemical, ADP Hunter fluorescence, primary and confirmatory (AID 624330); type: functional
# T5 sequence (Q9H0H5 whole entry): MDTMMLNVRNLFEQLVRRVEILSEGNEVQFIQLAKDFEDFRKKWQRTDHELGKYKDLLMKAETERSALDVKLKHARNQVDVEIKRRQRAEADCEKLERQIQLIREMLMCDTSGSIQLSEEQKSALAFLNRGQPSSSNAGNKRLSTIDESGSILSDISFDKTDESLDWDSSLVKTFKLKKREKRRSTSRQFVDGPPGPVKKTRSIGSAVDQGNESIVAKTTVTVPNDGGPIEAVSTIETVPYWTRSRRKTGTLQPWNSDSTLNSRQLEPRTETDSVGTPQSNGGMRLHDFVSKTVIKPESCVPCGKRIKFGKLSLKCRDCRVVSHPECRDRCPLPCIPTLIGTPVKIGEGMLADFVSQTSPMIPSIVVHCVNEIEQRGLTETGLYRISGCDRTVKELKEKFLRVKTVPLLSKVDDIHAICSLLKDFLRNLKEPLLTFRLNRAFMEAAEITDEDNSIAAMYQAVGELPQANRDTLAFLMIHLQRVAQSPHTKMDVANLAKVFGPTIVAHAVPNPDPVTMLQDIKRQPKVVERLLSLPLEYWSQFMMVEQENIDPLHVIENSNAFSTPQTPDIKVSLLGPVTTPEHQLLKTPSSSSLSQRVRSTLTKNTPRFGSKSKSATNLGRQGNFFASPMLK
structure (smiles),measurement,setting,value
Cc1ccccc1C(=O)Nc1cccc(OC(C)C)c1 [MEPRONIL],AC50,[1],28.2 µM (inconclusive)
CCc1ccccc1Cn1ncc(Cl)c(Oc2ccc(OC)cc2)c1=O,IC50,[2],4.62 µM (active)
CCOC(=O)c1ccc(/N=c2\sc(C(=O)OC)cc(=O)n2-c2ccc(C(=O)OCC)cc2)cc1,IC50,Melanocortin receptor 4,> 64.6 µM (inactive)
same,EC50,[3],3.42 µM (active)
same,IC50,[4],> 64.6 µM (inactive)
same,IC50,Beta-galactosidase,> 80 µM (inactive)
C[S+]([O-])c1ccc(-c2nc(-c3ccncc3)c(-c3ccc(F)cc3)[nH]2)cc1 (stereo unspecified) [SB-203580],Ki,[5],> 1.58 µM (inactive)
same,Ki,[6],> 6.31 µM (inactive)
same,Ki,[7],> 1.26 µM (inactive)
CCOC(=O)N1CCC(N(CCN(C)C)C(=S)Nc2ccc(Oc3ccccc3)cc2)CC1,IC50,[8],3.17 µM (active)
same,IC50,[9],0.5 µM (active)
same,IC50,[10],6.93 µM (active)
Cc1ccc2nc(-c3ccccc3)cc(C(=O)N3CC(C)OC(C)C3)c2c1 (stereo unspecified),IC50,[11],0.0681 µM (active)
CCN(CC)CCOc1ccc2c(c1)C(=NO)c1cc(OCCN(CC)CC)ccc1-2,AC50,INS1,5.22 µM (active)
same,IC50,[12],> 99 µM (inactive)
same,EC50,cells [13],> 350 µM (not active)
same,EC50,[14],11.4 µM (inactive)
same,EC50,[15],> 91.1 µM (inactive)
same,EC50,cells [16],> 350 µM (not active)
O=C(NCCc1ccccc1)c1ccc(=O)oc1,IC50,[17],144 µM (inactive)
COc1ccc(/C=C2\Oc3cc(OCC(=O)N4CCC(C(=O)O)CC4)ccc3C2=O)c(OC)c1,EC50,HEK293 [18],> 56 µM (inactive)
same,IC50,HEK293 [19],> 89.3 µM (inactive)
same,EC50,Insulin-degrading enzyme [20],> 54.7 µM (inactive)
same,EC50,Insulin-degrading enzyme [21],> 54.7 µM (inactive)
Cc1nc(Cc2nnc(SC(C)C(=O)N3c4ccccc4NC(=O)C3(C)C)o2)cs1 (stereo unspecified),EC50,HEK293 [18],> 55.9 µM (inactive)
same,IC50,HEK293 [19],> 89.1 µM (inactive)
same,EC50,Insulin-degrading enzyme [20],> 54.7 µM (inactive)
same,EC50,Insulin-degrading enzyme [21],> 54.7 µM (inactive)
COc1ccc(-c2c[nH]nc2-c2ccc(O)cc2O)cc1,IC50,Interleukin-8 [22],2.62 µM (active)
same,IC50,Interleukin-8 [23],6.94 µM (active)
same,IC50,[24],43.9 µM (active)
